# Reference: patent US20240391862A1, “(1,4,5-TRISUBSTITUTED-1H-PYRAZOL-3-YL)OXY-2-ALKOXY ALKYL ACIDS AND THEIR DERIVATIVES, THEIR SALTS AND THEIR USE AS HERBICIDAL AGENTS” (Bayer AKtiengesellschaft, priority 2021, published 2024)
# How the values were obtained:
# [1] = system: ZEAMX; experiment: Post-emergence herbicidal effect and crop plant compatibility, greenhouse pot test; format: in vivo, Zea mays; settings: one-leaf stage, rated visually after about 3 weeks vs untreated controls
# Summary of the method: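 Sandy loam pots, greenhouse. One-leaf stage (2–3 wk after sowing) foliar spray; WP/EC in water + 0.5% additive, 600 l/ha; 20–320 g/ha. Visual score ~3 wk, 0–100% vs untreated.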
# [2] = system: ABUTH; experiment: Post-emergence herbicidal effect, greenhouse pot test; format: in vivo, Abutilon theophrasti; settings: visual rating about 3 weeks after treatment
# Summary of the method: (§1)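 Greenhouse pot test: weeds and crops sown in sandy loam, sprayed post-emergence at one-leaf stage (2–3 weeks after sowing) with WP or EC formulations plus 0.5% additive at 600 l/ha water, rates 20–320 g/ha. Visual rating about 3 weeks later versus untreated controls (100% = dead, 0% = as control).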
# [3] = system: ALOMY; experiment: as above; format: in vivo, Alopecurus myosuroides; settings: 320 g/ha, visual rating about 3 weeks after treatment
# Summary of the method: as §1
# [4] = system: AVEFA; experiment: as above; format: in vivo, Avena fatua; settings: visual rating about 3 weeks after treatment
# Summary of the method: as §1
# [5] = system: DIGSA; experiment: as above; format: in vivo, Digitaria sanguinalis; settings: 320 g/ha, visual rating about 3 weeks after treatment
# Summary of the method: as §1
# [6] = system: ECHCG; experiment: as above; format: in vivo, Echinochloa crus-galli
# Summary of the method: as §1
# [7] = system: LOLRI; experiment: as above; format: in vivo, Lolium rigidum
# Summary of the method: as §1
# [8] = system: MATIN; experiment: as above; format: in vivo, Tripleurospermum inodorum
# Summary of the method: as §1
# [9] = system: PHBPU; experiment: as above; format: in vivo, Ipomoea purpurea
# Summary of the method: as §1
# [10] = system: POLCO; experiment: as above; format: in vivo, Fallopia convolvulus
# Summary of the method: as §1
# [11] = system: SETVI; experiment: as above; format: in vivo, Setaria viridis; settings: 320 g/ha
# Summary of the method: as §1
# [12] = system: VERPE; experiment: as above; format: in vivo, Veronica persica
# Summary of the method: as §1
# [13] = system: VIOTR; experiment: as above; format: in vivo, Viola tricolor
# Summary of the method: as §1
# [14] = system: KCHSC; experiment: as above; format: in vivo
# Summary of the method: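 Greenhouse plants in sandy loam, sprayed post-emergence at the one-leaf stage (2–3 weeks after sowing) with WP or EC formulations in water plus 0.5% additive at 600 l/ha. Rates 20 to 320 g/ha. Activity rated visually after about 3 weeks against untreated controls (0% like control, 100% dead).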
# [15] = system: AMARE; experiment: as above; format: in vivo, Amaranthus retroflexus; settings: Amaranthus retroflexus, 504 h, visual rating about 3 weeks after treatment, read-out: Post-emergence effect against AMARE
# Summary of the method: as §1
compound,measurement,setting,value
"COC(=O)CCOC(=O)C(OC)Oc1nn(-c2ncccc2F)c(-c2cncc(F)c2)c1C1CC1 (single isomer, unassigned) [Example I-77]",Post-emergence effect at 20 g/ha against ZEAMX in %,[1]; 20 g/ha,0%
same,Post-emergence effect at 80 g/ha against ZEAMX in %,[1]; 80 g/ha,0%
same,Post-emergence effect against ABUTH,[2]; 80 g/ha,80%
same,Post-emergence effect against ABUTH,[2]; 320 g/ha,80%
same,Post-emergence effect against ALOMY,[3],90%
same,Post-emergence effect against AVEFA,[4]; 80 g/ha,90%
same,Post-emergence effect against AVEFA,[4]; 320 g/ha,90%
same,Post-emergence effect against DIGSA,[5],90%
same,Post-emergence effect against ECHCG in %,[6]; 80 g/ha,90%
same,Post-emergence effect against ECHCG in %,[6]; 320 g/ha,90%
same,Post-emergence effect against LOLRI in %,[7]; 80 g/ha,90%
same,Post-emergence effect against LOLRI in %,[7]; 320 g/ha,90%
same,Post-emergence effect against MATIN in %,[8]; 80 g/ha,80%
same,Post-emergence effect against MATIN in %,[8]; 320 g/ha,80%
same,Post-emergence effect against PHBPU in %,[9]; 80 g/ha,90%
same,Post-emergence effect against PHBPU in %,[9]; 320 g/ha,90%
same,Post-emergence effect against POLCO in %,[10]; 80 g/ha,90%
same,Post-emergence effect against POLCO in %,[10]; 320 g/ha,90%
same,Post-emergence effect against SETVI in %,[11],90%
same,Post-emergence effect against VERPE in %,[12]; 320 g/ha,90%
same,Post-emergence effect against VIOTR in %,[13]; 80 g/ha,90%
same,Post-emergence effect against VIOTR in %,[13]; 320 g/ha,90%
same,Post-emergence effect against KCHSC in %,[14]; 20 g/ha,80%
same,Post-emergence effect against KCHSC in %,[14]; 80 g/ha,90%
same,Post-emergence effect against KCHSC in %,[14]; 320 g/ha,90%
"CCOC(=O)C(OCC)Oc1nn(-c2ccccc2F)c(-c2ccc(F)nc2)c1Br (single isomer, unassigned) [Example I-66, Ethyl (2R*)-{[4-bromo-1-(2-fluorophenyl)-5-(6-fluoropyridin-3-yl)-1H-pyrazol-3-yl]oxy}(ethoxy)acetate]",pest or weed control at 80 g/ha,"[2]; Abutilon theophrasti, 504 h, 80 g/ha, read-out: Post-emergence effect against ABUTH",80%
same,pest or weed control at 320 g/ha,"[2]; Abutilon theophrasti, 504 h, 320 g/ha, read-out: Post-emergence effect against ABUTH",90%
same,pest or weed control at 320 g/ha,"[3]; Alopecurus myosuroides, 504 h, read-out: Post-emergence effect against ALOMY",90%
same,pest or weed control at 80 g/ha,[15]; 80 g/ha,80%
same,pest or weed control at 320 g/ha,[15]; 320 g/ha,80%
same,pest or weed control at 320 g/ha,"[4]; Avena fatua, 504 h, 320 g/ha, read-out: Post-emergence effect against AVEFA",80%
same,pest or weed control at 320 g/ha,"[5]; Digitaria sanguinalis, 504 h, read-out: Post-emergence effect against DIGSA",90%
same,pest or weed control at 80 g/ha,"[6]; Echinochloa crus-galli, 504 h, 80 g/ha, read-out: Post-emergence effect against ECHCG in %",90%
same,pest or weed control at 320 g/ha,"[6]; Echinochloa crus-galli, 504 h, 320 g/ha, read-out: Post-emergence effect against ECHCG in %",90%
same,pest or weed control at 320 g/ha,"[7]; Lolium rigidum, 504 h, 320 g/ha, read-out: Post-emergence effect against LOLRI in %",90%
same,pest or weed control at 80 g/ha,"[8]; Tripleurospermum inodorum, 504 h, 80 g/ha, read-out: Post-emergence effect against MATIN in %",80%
same,pest or weed control at 320 g/ha,"[8]; Tripleurospermum inodorum, 504 h, 320 g/ha, read-out: Post-emergence effect against MATIN in %",90%
same,pest or weed control at 20 g/ha,"[9]; Ipomoea purpurea, 504 h, 20 g/ha, read-out: Post-emergence effect against PHBPU in %",80%
same,pest or weed control at 80 g/ha,"[9]; Ipomoea purpurea, 504 h, 80 g/ha, read-out: Post-emergence effect against PHBPU in %",80%
same,pest or weed control at 320 g/ha,"[9]; Ipomoea purpurea, 504 h, 320 g/ha, read-out: Post-emergence effect against PHBPU in %",90%
same,pest or weed control at 320 g/ha,"[10]; Fallopia convolvulus, 504 h, 320 g/ha, read-out: Post-emergence effect against POLCO in %",80%
same,pest or weed control at 320 g/ha,"[11]; Setaria viridis, 504 h, read-out: Post-emergence effect against SETVI in %",90%
same,pest or weed control at 80 g/ha,"[12]; Veronica persica, 504 h, 80 g/ha, read-out: Post-emergence effect against VERPE in %",80%
same,pest or weed control at 320 g/ha,"[12]; Veronica persica, 504 h, 320 g/ha, read-out: Post-emergence effect against VERPE in %",90%
same,pest or weed control at 80 g/ha,"[14]; 504 h, 80 g/ha, read-out: Post-emergence effect against KCHSC in %",80%
same,pest or weed control at 320 g/ha,"[14]; 504 h, 320 g/ha, read-out: Post-emergence effect against KCHSC in %",90%
